This is an account of results in patent US8609669B2, “Potassium channel modulators” (AbbVie Inc., priority 2010, dated 2013).

This assay deals with T1, KCNQ 2/3 channels (HEK293 cells stably expressing human KCNQ2 and KCNQ3 subunits) (Homo sapiens, UniProt O43525+O43526).
T1 construct: expressed in transfected cells; host or cells: HEK293
In words: KCNQ2/3 channel activation, thallium flux FLIPR assay (BTC-AM dye). Type of assay: cell-based. Conditions: for Emax: HEK293, maximum response relative to response of retigabine at 10 μM (set at 100%), read-out: Max. %; for EC50: HEK293 cells expressing human KCNQ2 and KCNQ3, FLIPR thallium flux. The essentials: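 HEK293 cells stably expressing human KCNQ2/KCNQ3 were loaded with BTC-AM and exposed to compound for 4 min in pH 7.3 gluconate buffer with ouabain. Thallium flux was triggered with 6 mM TlNO3 and 10 mM K2SO4 (stock additions) and fluorescence (ex 488, em 540 nm) recorded for 3 min. EC50 came from responses over baseline; maximal response is relative to 10 μM retigabine (100%).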

As to `Cc1ccnc2c(-c3ccc(F)cc3)c(NC(=O)Cc3ccc(F)cc3)nn12` [Example 28, 2-(4-fluorophenyl)-N-[3-(4-fluorophenyl)-7-methylpyrazolo[1,5-a]pyrimidin-2-yl]acetamide], the Emax was determined as 120% and the EC50 is 1000 to 10000 nM.
On the same counts, the results for `Cc1cnc2c(-c3ccc(C)c(Cl)c3)c(NC(=O)Cc3ccc(F)cc3)nn2c1` [Example 72, N-[3-(3-chloro-4-methylphenyl)-6-methylpyrazolo[1,5-a]pyrimidin-2-yl]-2-(4-fluorophenyl)acetamide] are 247% and 100 to 500 nM.
Regarding `CC(C)(C)c1c(NC(=O)CC2CCC3CC23)nn2cccnc12` (stereo not drawn) [Example 175, 2-[(cis)-bicyclo[3.1.0]hex-2-yl]-N-(3-tert-butylpyrazolo[1,5-a]pyrimidin-2-yl)acetamide], the Emax came out at 177% and the concentration for a half-maximal effect (EC50) was in the range of 1000 to 10000 nM.
On the same counts, the results for `Cc1ccnc2c(-c3ccc(OC(F)(F)F)cc3)c(NC(=O)CC3CC4CCC3C4)nn12` (racemic) [Example 160, (±)-exo-2-bicyclo[2.2.1]hept-2-yl-N-{7-methyl-3-[4-(trifluoromethoxy)phenyl]pyrazolo[1,5-a]pyrimidin-2-yl}acetamide] are 148% and < 100 nM.
In the case of `CC(C)(C)c1c(NC(=O)Cc2cc(F)cc(F)c2)nn2cccnc12` [Example 127, N-(3-tert-butylpyrazolo[1,5-a]pyrimidin-2-yl)-2-(3,5-difluorophenyl)acetamide], the Emax was 147% and the EC50 fell in the range of 100 to 500 nM.
On the same counts, the results for `COc1cccc(CC(=O)Nc2nn3c(C)cc(C)nc3c2-c2cccc(Cl)c2)c1` [Example 54, N-[3-(3-chlorophenyl)-5,7-dimethylpyrazolo[1,5-a]pyrimidin-2-yl]-2-(3-methoxyphenyl)acetamide] are 67% and 1000 to 10000 nM.
Consider `O=C(Cc1cccnc1)Nc1nn2cccnc2c1-c1ccc(Cl)cc1` [Example 101, N-[3-(4-chlorophenyl)pyrazolo[1,5-a]pyrimidin-2-yl]-2-(pyridin-3-yl)acetamide], for which the Emax came to 8% and the EC50 is > 10000 nM.
In the case of `O=C(Nc1nn2cccnc2c1-c1ccc(Cl)cc1)NC1CCCCC1` [Example 108, 1-[3-(4-chlorophenyl)pyrazolo[1,5-a]pyrimidin-2-yl]-3-cyclohexylurea], the Emax turned out to be 8% and the EC50 was > 10000 nM.
With `CC(C)(C)c1c(NC(=O)CC2CC3CCC2C3)nn2cccnc12` (racemic) [Example 121, (±)-exo-2-bicyclo[2.2.1]hept-2-yl-N-(3-tert-butylpyrazolo[1,5-a]pyrimidin-2-yl)acetamide], the Emax was determined as 150% and the EC50 is < 100 nM.
For `COC(=O)c1c(NC(=O)CCC2CCCC2)nn2cccnc12` [Example 125, methyl 2-[(3-cyclopentylpropanoyl)amino]pyrazolo[1,5-a]pyrimidine-3-carboxylate], the Emax is 8% and the EC50 was > 10000 nM.
As to `Cc1cnc2c(-c3ccc(F)c(C)c3)c(NC(=O)CC3CC4CCC3C4)nn2c1` (racemic) [Example 150, (±)-exo-2-bicyclo[2.2.1]hept-2-yl-N-[3-(4-fluoro-3-methylphenyl)-6-methylpyrazolo[1,5-a]pyrimidin-2-yl]acetamide], the Emax came to 198% and the EC50 was < 100 nM.
For the molecule `Cc1ccc(-c2c(NC(=O)CC(C)(C)C)nn3c(C)ccnc23)cc1F` [Example 12, N-[3-(3-fluoro-4-methylphenyl)-7-methylpyrazolo[1,5-a]pyrimidin-2-yl]-3,3-dimethylbutanamide], the Emax was found to be 101% and the EC50 was 1000 to 10000 nM.
Consider `CC(C)(C)c1c(NC(=O)C[C@@H]2CC[C@H]3C[C@@H]2C3(C)C)nn2cccnc12` [Example 171, N-(3-tert-butylpyrazolo[1,5-a]pyrimidin-2-yl)-2-[(1S,2S,5S)-6,6-dimethylbicyclo[3.1.1]hept-2-yl]acetamide], for which the Emax is 138% and the EC50 is < 100 nM.
`Cc1cnc2c(-c3ccc(F)c(C)c3)c(NC(=O)CS(=O)(=O)C3CCCC3)nn2c1` [Example 174, 2-(cyclopentylsulfonyl)-N-[3-(4-fluoro-3-methylphenyl)-6-methylpyrazolo[1,5-a]pyrimidin-2-yl]acetamide]: the Emax was determined as 67% and the EC50 is > 10000 nM.
For `CC(C)(C)c1c(NC(=O)Cc2ccc(Cl)cc2)nn2cccnc12` [Example 152, N-(3-tert-butylpyrazolo[1,5-a]pyrimidin-2-yl)-2-(4-chlorophenyl)acetamide], the Emax is 191% and the half-maximal effective concentration (EC50) was in the range of 100 to 500 nM.
`CC(C)(C)c1c(NC(=O)CCc2ccc(C(F)(F)F)cc2)nn2cccnc12` [Example 165, N-(3-tert-butylpyrazolo[1,5-a]pyrimidin-2-yl)-3-[4-(trifluoromethyl)phenyl]propanamide]: the Emax was 178% and the EC50 lay in the range of 100 to 500 nM.
As for `CC(C)(C)c1c(NC(=O)Cc2ccccc2)nn2cccnc12` [Example 137, N-(3-tert-butylpyrazolo[1,5-a]pyrimidin-2-yl)-2-phenylacetamide], the Emax is 195% and the EC50 lay within 1000 to 10000 nM.
On the same counts, the results for `O=C(CCC1CCCCC1)Nc1nn2cccnc2c1-c1ccc(Cl)cc1` [Example 157, N-[3-(4-chlorophenyl)pyrazolo[1,5-a]pyrimidin-2-yl]-3-cyclohexylpropanamide] are 99% and < 100 nM.
In the case of `Cc1cnc2c(-c3ccc(C(F)(F)F)cc3)c(NC(=O)CCc3ccccc3)nn2c1` [Example 59, N-{6-methyl-3-[4-(trifluoromethyl)phenyl]pyrazolo[1,5-a]pyrimidin-2-yl}-3-phenylpropanamide], the Emax is 123% and the EC50 fell in the range of 100 to 500 nM.
Consider `Cc1cnc2c(-c3cccc(F)c3)c(NC(=O)Cc3ccc(F)cc3)nn2c1` [Example 84, 2-(4-fluorophenyl)-N-[3-(3-fluorophenyl)-6-methylpyrazolo[1,5-a]pyrimidin-2-yl]acetamide], for which the Emax turned out to be 132% and the EC50 lay in the range of 100 to 500 nM.
On the same counts, the results for `CC(C)(C)c1c(NC(=O)/C=C/c2ccccc2)nn2cccnc12` [Example 136, (2E)-N-(3-tert-butylpyrazolo[1,5-a]pyrimidin-2-yl)-3-phenylacrylamide] are 8% and > 10000 nM.
On the same counts, the results for `Cc1cc(C)n2nc(NC(=O)CC3CCCCC3)c(-c3ccc(Cl)cc3)c2n1` [Example 42, N-[3-(4-chlorophenyl)-5,7-dimethylpyrazolo[1,5-a]pyrimidin-2-yl]-2-cyclohexylacetamide] are 142% and 100 to 500 nM.
For `O=C(CCC1CCCC1)Nc1nn2cccnc2c1-c1cccc(Cl)c1` [Example 56, N-[3-(3-chlorophenyl)pyrazolo[1,5-a]pyrimidin-2-yl]-3-cyclopentylpropanamide], the Emax is 98% and the EC50 lay within 100 to 500 nM.
Take `Cc1ccnc2c(Cc3ccc(F)cc3)c(NC(=O)CCC3CCCC3)nn12` [Example 71, 3-cyclopentyl-N-[3-(4-fluorobenzyl)-7-methylpyrazolo[1,5-a]pyrimidin-2-yl]propanamide]: the Emax stood at 141% and the EC50 was < 100 nM.
Consider `Cc1cc(C)n2nc(NC(=O)CCC3CCCCC3)c(CC(C)(C)C)c2n1` [Example 14, 3-cyclohexyl-N-[3-(2,2-dimethylpropyl)-5,7-dimethylpyrazolo[1,5-a]pyrimidin-2-yl]propanamide], for which the Emax came out at 182% and the EC50 was < 100 nM.
On to `Cc1cnc2c(-c3ccc(F)c(C)c3)c(NC(=O)CCC(C)(C)C)nn2c1` [Example 164, N-[3-(4-fluoro-3-methylphenyl)-6-methylpyrazolo[1,5-a]pyrimidin-2-yl]-4,4-dimethylpentanamide], for which the Emax was 126% and the EC50 is 500 to 1000 nM.
Take `C/C=C/c1c(NC(=O)CC(C)(C)C)nn2cccnc12` [Example 167, 3,3-dimethyl-N-{3-[(1E)-prop-1-en-1-yl]pyrazolo[1,5-a]pyrimidin-2-yl}butanamide]: the Emax was found to be 98% and the EC50 was in the range of 1000 to 10000 nM.
Take `Cc1cc(C)n2nc(NC(=O)CCC3CCCC3)c(C(C)C)c2n1` [Example 122, 3-cyclopentyl-N-(3-isopropyl-5,7-dimethylpyrazolo[1,5-a]pyrimidin-2-yl)propanamide]: the Emax worked out at 155% and the concentration giving a half-maximal response (EC50) is < 100 nM.
With `COc1ccc(CC(=O)Nc2nn3c(C)ccnc3c2-c2ccc(C(F)(F)F)cc2)cc1` [Example 80, 2-(4-methoxyphenyl)-N-{7-methyl-3-[4-(trifluoromethyl)phenyl]pyrazolo[1,5-a]pyrimidin-2-yl}acetamide], the Emax stood at 59% and the EC50 was > 10000 nM.
On the same counts, the results for `CC(C)(C)CC(=O)Nc1nn2cccnc2c1-c1cccnc1` [Example 110, 3,3-dimethyl-N-[3-(pyridin-3-yl)pyrazolo[1,5-a]pyrimidin-2-yl]butanamide] are 8% and > 10000 nM.
On the same counts, the results for `CC(C)(C)c1c(NC(=O)CC2CCCC2)nn2cccnc12` [Example 154, N-(3-tert-butylpyrazolo[1,5-a]pyrimidin-2-yl)-2-cyclopentylacetamide] are 188% and 1000 to 10000 nM.
For `CC(C)(C)c1c(NC(=O)CC2CCc3ccccc32)nn2cccnc12` (racemic) [Example 172, (±)-N-(3-tert-butylpyrazolo[1,5-a]pyrimidin-2-yl)-2-(2,3-dihydro-1H-inden-1-yl)acetamide], the Emax is 20% and the EC50 was > 10000 nM.

The EC50 is the concentration at which the effect is half-maximal. Read a low EC50 as a more potent agent.
